Laboratory results: patent publication US10981932B2, “Macrocyclic indole derivatives” (Bayer Aktiengesellschaft, priority 2016, dated 2021)
Read-outs that look alike come from different tables or passages of the source.

Experiments:
SUDHL5 [1] = test: Induction of cytotoxicity (CellTiter-Glo, 5 h), SUDHL5
MCL-1 = MCL-1 (Homo sapiens, UniProt Q07820); test: Protein-protein interaction assay MCL-1/Noxa BH3 peptide (MCL-1 assay), TR-FRET; assay type: binding; settings: MBP-MCL-1 / Noxa BH3-derived peptide, median
Sequence of MCL-1 (Q07820 whole entry): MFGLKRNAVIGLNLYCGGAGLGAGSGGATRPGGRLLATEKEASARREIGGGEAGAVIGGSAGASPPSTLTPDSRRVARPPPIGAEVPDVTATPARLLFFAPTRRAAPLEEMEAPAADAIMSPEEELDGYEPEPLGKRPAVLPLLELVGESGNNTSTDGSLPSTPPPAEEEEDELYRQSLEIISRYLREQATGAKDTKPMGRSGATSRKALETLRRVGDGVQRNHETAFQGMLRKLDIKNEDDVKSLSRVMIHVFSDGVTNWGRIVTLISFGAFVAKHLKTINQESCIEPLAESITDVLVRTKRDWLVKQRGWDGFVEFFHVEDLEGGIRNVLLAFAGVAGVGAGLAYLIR
Procedure: Protein-Protein Interaction Assay: MCL-1/Noxa BH3 Peptide (MCL-1 Assay) […]
In the assay 11 different concentrations of each compound (0.1 nM, 0.33 nM, 1.1 nM, 3.8 nM, 13 nM, 44 nM, 0.15 μM, 0.51 μM, 1.7 μM, 5.9 μM and 20 μM) were typically measured as duplicates in the same microtiter plate. For that, 100-fold concentrated DMSO solutions were prepared by serial dilutions (1:3.4) of a 2 mM stock solution in a clear, 384-well microtiter plate (Greiner Bio-One, Frickenhausen, Germany). From there, 50 ni were transferred in a dark test plate (Greiner Bio-One, Frickenhausen, Germany). The assay was initiated by addition of 2 μl of a 2.5-fold concentrated MBP-MCL-1 solution (usually for a 1 nM end concentration in 5 μl reaction volume) in aqueous assay buffer [50 mM Tris/HCl pH 7, 100 mM sodium chloride (NaCl), 50 mM potassium fluoride (KF), 0.005% Tween-20, 2 mM DTT, 0.1% bovine gamma globulin (BGG)] to the compounds in the assay plate. This was followed by a 10-minute incubation step at 22° C. for pre-equilibration of the putative complex between MBP-MCL-1 and the compounds. After that.
The mixture was incubated in the dark for one hour at 22° C. and then overnight at 4° C. The formation of MCL-1/Noxa complexes was determined by measuring the resonance energy transfer of the anti-MBP- Eu-cryptate antibody to the streptavidin-XL665 present in the reaction. For that purpose, the fluorescence emission at 620 nm and 665 nm after excitation at 330-350 nm was measured in a TR-FRET measuring instrument, for instance a Rubystar or a Pherastar (both from BMG Lab Technologies, Offenburg, Germany) or a Viewlux (Perkin-Elmer). The ratio of the emission at 665 nm and at 622 nm was used as indicator of the amount of MCL-1/NOXA complexes present.
The resulting data (ratio) were normalized, taking 0% inhibition as the mean value of control measurements (usually 32 data points) where all reagents were included. In this case 50 nl DMSO were used instead of compounds. A 100% inhibition corresponded to the mean value of control measurements (usually 32 data points) where all reagents except MCL-1 were included. IC50 values were determined by regression analysis based on a 4 parameter equation (minimum, maximum, IC50, Hill; Y=Max+(Min−Max)/(1+(X/IC50)^Hill) using the Screener Software (Genedata).

SUDHL10 [2] = test: Induction of cytotoxicity (CellTiter-Glo, 5 h), SUDHL10
Procedure: Therefore, cytotoxicity assays were run in parallel in SUDHL5 and SUDHL10 cells.
The different cell lines were plated in culture medium (RPMI 1640 [GIBCO #22400-089]supplemented with 10% Fetal Bovine Serum) at a density of 3.300 cells in 30 μl/well in a sterile, solid black, flat bottom, polystyrene, TC-treated 384-well microplate (Corning #3571) using Multidrop Combi Reagent Dispenser. As a control, medium without cells was also added to the plate. Cells were incubated in a humidified incubator at 37° C. overnight. On the next day, the cells were treated with compounds (stock solution, 10 mM in DMSO) using the HP D300 Digital Dispenser in a concentration range of 3.3×10e-5 M (33 μM) to 5×10e-9 M (5 nM) in a single-dot curve with at least 16 dilutions and a DMSO concentration of 0.33%. Rim wells were excluded. The cells were incubated for 5 h hours in a humidified incubator at 37° C. After this incubation, 30 μl of CellTiter-Glo@ Luminescent Cell Viability reagent (Promega, G7573) was added to each well using the Multidrop Combi Reagent Dispenser, followed by 15 min incubation on a shaker at room temperature. Finally, luminescence was read at 0.1 ms, with a gain of 3000 using the PHERAstar FS microplate reader (BMG Labtech).
The Bella DRC Master Sheet was used to calculate IC50s, with fixed CI=0 and C0=1.

SUDHL5 [3] = test: Induction of caspase-3/7 activity (Caspase-Glo 3/7), SUDHL5; assay type: cell-based; settings: caspase-3/7 induction, SUDHL5 cells, 3 h treatment, median
Procedure: (§1) Induction of Caspase-317 Activity Upon Treatment of Cells with Selected Compounds
(§2) The BH3-domain of MCL-1 sequesters pro-apoptotic proteins, thereby inhibiting apoptosis. In contrast, MCL-1 inhibitors are expected to antagonize this effect leading to an increase in apoptosis, which can be determined by measuring the activity of caspase-3/7.
(§3) The activity of caspase-3/7 was determined in DLBCL (Diffuse large B-cell lymphoma) cell lines (SUDHL5 and SUDHL10) upon treatment with different compounds, using the Caspase-Glo® 3/7 reagent from Promega (G8092).
(§4) Rim wells were excluded. The cells were incubated for 3 h hours in a humidified incubator at 37° C.
(§5) For the evaluation of the results, the background measured with “medium-only” was subtracted from all other values. […] The Bella DRC Master Sheet was used to calculate EC50s, with fixed C0=1 and CI=plateaulmax induction for the reference compound.

SUDHL10 [4] = test: Induction of caspase-3/7 activity (Caspase-Glo 3/7), SUDHL10; assay type: cell-based; settings: caspase-3/7 induction, SUDHL10 cells, 3 h treatment, median
Procedure: as §1, §2, §3, §4, §5

SUDHL5 [5] = test: Anti-proliferative effect (CellTiter-Glo, 72 h), SUDHL5; assay type: cell-based; settings: SUDHL5 cells, antiproliferation, 72 h incubation, median, read-out: Antiproli SUDHL5 [M] (median)
Procedure: (§6) Assessment of the Anti-Proliferative Effect of Compounds in Different Cell Lines
(§7) The impact of compounds on the proliferation of different cell lines was assessed using the CellTiter-Glo® Luminescent Cell Viability reagent from Promega (G7573). Of note, SUDHL10 and SUDHL5 (DLBCL), NCI-H929 (Multiple Myeloma), A2780 (ovarian carcinoma) as well as MV-4-11(AML) cells are sensitive to MCL-1 inhibition.
(§8) In parallel, cells were plated in a reference (day 0) plate for time zero determination.
(§9) Rim wells were excluded. The cells were incubated for 72 h hours in a humidified incubator at 37° C. The day 0 plate was measured by adding 30 μl/well of CTG solution (CellTiter-Glo® Luminescent Cell Viability reagent, Promega G7573) to time zero wells in the reference plate followed by a 10 minutes incubation and luminescence reading at 0.1 ms, using the PHERAstar FS microplate reader (BMG Labtech).
(§10) After 72 h incubation, the treated plates were measured in the same way as the day 0 plate mentioned above.

A2780 = test: Anti-proliferative effect (CellTiter-Glo, 72 h), A2780; assay type: cell-based; settings: A2780 cells, median, read-out: IC50 antiproliferation assay A2780 [M] (median)
Procedure: as §6, §7, §8, §9, §10

[6] = Homo sapiens, SU-DHL-5, 5 h, read-out: Cytotox SUDHL5 [M] (median), SUDHL5 cells, cytotoxicity induction, CellTiter-Glo, 5 h incubation, median
[7] = Homo sapiens, SU-DHL10, 5 h, read-out: Cytotox SUDHL10 [M] (median), SUDHL10 cells, cytotoxicity induction, CellTiter-Glo, 5 h incubation, median
[8] = read-out: Cytotox SUDHL5 [M] (median), SUDHL5 cells, cytotoxicity induction, CellTiter-Glo, 5 h incubation, median

Compound | IC50 (MCL-1) | EC50 (SUDHL5 [3]; Homo sapiens, SU-DHL-5, 3 h) | EC50 (SUDHL10 [4]; Homo sapiens, SU-DHL10, 3 h) | IC50 (SUDHL5 [5]; Homo sapiens, SU-DHL-5, 72 h) | IC50 (A2780; Homo sapiens, A2780, 72 h) | EC50 (SUDHL5 [3]) | EC50 (SUDHL10 [4]) | IC50 (A2780) | IC50 (SUDHL5 [5]) | IC50 (SUDHL5 [1]; [6]) | IC50 (SUDHL10 [2]; [7]) | IC50 (SUDHL5 [1]; [8]) | IC50 (SUDHL10 [2]; read-out: Cytotox SUDHL10 [M] (median), SUDHL10 cells, cytotoxicity induction, CellTiter-Glo, 5 h incubation, median)
Cn1nc(COc2ccc(C3(O)CCOCC3)cc2)c2c1COCCCCn1c(C(=O)O)c(CCCOc3cccc4ccccc34)c3cccc-2c31 (racemic) [Example 1-61, (rac)-3-{[4-(4-hydroxytetrahydro-2H-pyran-4-yl)phenoxy]methyl}-1-methyl-7-[3-(naphthalen-1-yloxy)propyl]-1,10,11,12,13,15-hexahydropyrazolo[4′,3′:9,10][1,6]oxazacycloundecino[8,7,6-hi]indole-8-carboxylic Acid] | 0.00293 µM | 6.16 µM | 10.7 µM | 5.41e-06 M | – | – | – | – | – | 1.33e-05 M | 2.11e-05 M | – | –
COC1(c2ccc(OCc3nn(C)c4c3-c3cccc5c(CCCOc6cccc7ccccc67)c(C(=O)O)n(c35)CCCCOC4)cc2)CCOCC1 (racemic) [Example 1-65, (rac)-3-{[4-(4-methoxytetrahydro-2H-pyran-4-yl)phenoxy]methyl}-1-methyl-7-[3-(naphthalen-1-yloxy)propyl]-1,10,11,12,13,15-hexahydropyrazolo[4′,3′:9,10][1,6]oxazacycloundecino[8,7,6-hi]indole-8-carboxylic Acid] | 0.031 µM | 16.3 µM | 17.5 µM | 3.71e-06 M | – | – | – | – | – | > 3.3e-05 M | 3.13e-05 M | – | –
Cn1nc(CO)c2c1COCCCCn1c(C(=O)O)c(CCCOc3cccc4ccccc34)c3cccc-2c31 (racemic) [Example 1-95, (rac)-3-(hydroxymethyl)-1-methyl-7-[3-(naphthalen-1-yloxy)propyl]-1,10,11,12,13,15-hexahydropyrazolo[4′,3′:9,10][1,6]oxazacycloundecino[8,7,6-hi]indole-8-carboxylic Acid] | 0.0039 µM | 10.8 µM | 22.7 µM | 4.8e-06 M | – | – | – | – | – | 1.98e-05 M | > 3.3e-05 M | – | –
Cc1c2c(nn1CC(F)(F)F)COC/C=C\Cn1c(C(=O)O)c(CCCOc3cccc4ccccc34)c3cccc-2c31 (racemic) [Example 091, (rac)-(11Z)-3-methyl-7-[3-(naphthalen-1-yloxy)propyl]-2-(2,2,2-trifluoroethyl)-2,10,13,15-tetrahydropyrazolo[4′,3′:9,10][1,6]oxazacycloundecino[8,7,6-hi]indole-8-carboxylic Acid] | 0.0202 µM | 23.5 µM | 31.8 µM | 6.92e-06 M | 7.1e-06 M | – | – | – | – | 1.48e-05 M | 1.89e-05 M | – | –
CN(C)S(=O)(=O)N1CCN(c2ccc(OCc3nn(C)c4c3-c3cccc5c(CCCOc6cccc7ccccc67)c(C(=O)O)n(c35)CCCCOC4)cc2)CC1 (single isomer, unassigned; enantiomer 1) [Example 1-19, 3-({4-[4-(dimethylsulfamoyl)piperazin-1-yl]phenoxy}methyl)-1-methyl-7-[3-(naphthalen-1-yloxy)propyl]-1,10,11,12,13,15-hexahydropyrazolo[4′,3′:9,10][1,6]oxazacycloundecino[8,7,6-hi]indole-8-Carboxylic acid (Enantiomer 1)] | 0.0527 µM | – | – | – | – | 17.2 µM | 20.6 µM | – | 5.87e-06 M | – | – | 2.7e-05 M | 2.52e-05 M

Second part, led by results:

IC50 (MCL-1) | EC50 (SUDHL5 [3]; Homo sapiens, SU-DHL-5, 3 h) | EC50 (SUDHL10 [4]; Homo sapiens, SU-DHL10, 3 h) | IC50 (SUDHL5 [5]; Homo sapiens, SU-DHL-5, 72 h) | IC50 (A2780; Homo sapiens, A2780, 72 h) | EC50 (SUDHL5 [3]) | EC50 (SUDHL10 [4]) | IC50 (A2780) | IC50 (SUDHL5 [5]) | Compound | IC50 (SUDHL5 [1]; [6]) | IC50 (SUDHL10 [2]; [7]) | IC50 (SUDHL5 [1]; [8]) | IC50 (SUDHL10 [2]; read-out: Cytotox SUDHL10 [M] (median), SUDHL10 cells, cytotoxicity induction, CellTiter-Glo, 5 h incubation, median)
0.00682 µM | 8.26 µM | > 33 µM | 1.32e-05 M | > 3.3e-05 M | – | – | – | – | COCCn1nc(C2CC2)c2c1COCCCCn1c(C(=O)O)c(CCCOc3cccc4ccccc34)c3cccc-2c31 (racemic) [Example 102, (rac)-3-Cyclopropyl-1-(2-methoxyethyl)-7-[3-(naphthalen-1-yloxy)propyl]-1,10,11,12,13,15-hexahydropyrazolo[4′,3′:9,10][1,6]oxazacycloundecino[8,7,6-hi]indole-8-carboxylic Acid] | 6.12e-06 M | > 3.3e-05 M | – | –
0.0111 µM | > 33 µM | > 33 µM | 1.56e-05 M | 1.9e-05 M | – | – | – | – | Cc1nn(CC(F)(F)F)c2c1-c1cccc3c(CCCOc4cccc5ccccc45)c(C(=O)O)n(c13)CCCCOC2 (racemic) [Example 109, (rac)-3-methyl-7-[3-(naphthalen-1-yloxy)propyl]-1-(2,2,2-trifluoroethyl)-1,10,11,12,13,15-hexahydropyrazolo[4′,3′:9,10][1,6]oxazacycloundecino[8,7,6-hi]indole-8-carboxylic acid] | > 3.3e-05 M | > 3.3e-05 M | – | –
0.00761 µM | > 33 µM | 28 µM | 2.11e-05 M | > 3.3e-05 M | – | – | – | – | Cn1nc(CCN2CCOCC2)c2c1COCCCCn1c(C(=O)O)c(CCCOc3cccc4ccccc34)c3cccc-2c31 (racemic) [Example 150, (rac)-1-methyl-3-[2-(morpholin-4-yl)ethyl]-7-[3-(naphthalen-1-yloxy)propyl]-1,10,11,12,13,15-hexahydropyrazolo[4′,3′:9,10][1,6]oxazacycloundecino[8,7,6-hi]indole-8-carboxylic Acid] | 2.69e-05 M | > 3.3e-05 M | – | –
0.00524 µM | – | 20.7 µM | 9.08e-06 M | 2.9e-05 M | 14.9 µM | > 33 µM | > 3.3e-05 M | – | Cn1nc(COC2CC2)c2c1COCCCCn1c(C(=O)O)c(CCCOc3cccc4ccccc34)c3cccc-2c31 (single isomer, unassigned) [Example 214, 3-[(cyclopropyloxy)methyl]-1-methyl-7-[3-(naphthalen-1-yloxy)propyl]-1,10,11,12,13,15-hexahydropyrazolo[4′,3′:9,10][1,6]oxazacycloundecino[8,7,6-hi]indole-8-carboxylic Acid] | – | – | 1.14e-05 M | –
